Source: ChEMBL document CHEMBL5257099, “Design, synthesis and bioactivity evaluations of 8-substituted-quinoline-2-carboxamide derivatives as novel histone deacetylase (HDAC) inhibitors” (Bioorg Med Chem, 2023)

Experiments:
Histone deacetylase = assay: Inhibition of HDAC in human HeLa nuclear extract using Boc-Lys(Ac)-AMC or Boc-Lys(Tfa)-AMC as substrate preincubated for 5 mins followed by substrate addition and measured after 30 mins by fluorescence assay; type: subcellular, Nucleus
Histone deacetylase 1 = Histone deacetylase 1 (Homo sapiens, UniProt Q13547); assay: Inhibition of HDAC1 (unknown origin) using Boc-Lys(Ac)-AMC or Boc-Lys(Tfa)-AMC as substrate preincubated for 5 mins followed by substrate addition and measured after 2 hrs by fluorescence assay
[1] = target: T1, Protein deacetylase HDAC6 (Homo sapiens, UniProt Q9UBN7); assay: Inhibition of HDAC6 (unknown origin) using Boc-Lys(Ac)-AMC or Boc-Lys(Tfa)-AMC as substrate preincubated for 5 mins followed by substrate addition and measured after 2 hrs by fluorescence assay
T1 sequence (Q9UBN7 whole entry): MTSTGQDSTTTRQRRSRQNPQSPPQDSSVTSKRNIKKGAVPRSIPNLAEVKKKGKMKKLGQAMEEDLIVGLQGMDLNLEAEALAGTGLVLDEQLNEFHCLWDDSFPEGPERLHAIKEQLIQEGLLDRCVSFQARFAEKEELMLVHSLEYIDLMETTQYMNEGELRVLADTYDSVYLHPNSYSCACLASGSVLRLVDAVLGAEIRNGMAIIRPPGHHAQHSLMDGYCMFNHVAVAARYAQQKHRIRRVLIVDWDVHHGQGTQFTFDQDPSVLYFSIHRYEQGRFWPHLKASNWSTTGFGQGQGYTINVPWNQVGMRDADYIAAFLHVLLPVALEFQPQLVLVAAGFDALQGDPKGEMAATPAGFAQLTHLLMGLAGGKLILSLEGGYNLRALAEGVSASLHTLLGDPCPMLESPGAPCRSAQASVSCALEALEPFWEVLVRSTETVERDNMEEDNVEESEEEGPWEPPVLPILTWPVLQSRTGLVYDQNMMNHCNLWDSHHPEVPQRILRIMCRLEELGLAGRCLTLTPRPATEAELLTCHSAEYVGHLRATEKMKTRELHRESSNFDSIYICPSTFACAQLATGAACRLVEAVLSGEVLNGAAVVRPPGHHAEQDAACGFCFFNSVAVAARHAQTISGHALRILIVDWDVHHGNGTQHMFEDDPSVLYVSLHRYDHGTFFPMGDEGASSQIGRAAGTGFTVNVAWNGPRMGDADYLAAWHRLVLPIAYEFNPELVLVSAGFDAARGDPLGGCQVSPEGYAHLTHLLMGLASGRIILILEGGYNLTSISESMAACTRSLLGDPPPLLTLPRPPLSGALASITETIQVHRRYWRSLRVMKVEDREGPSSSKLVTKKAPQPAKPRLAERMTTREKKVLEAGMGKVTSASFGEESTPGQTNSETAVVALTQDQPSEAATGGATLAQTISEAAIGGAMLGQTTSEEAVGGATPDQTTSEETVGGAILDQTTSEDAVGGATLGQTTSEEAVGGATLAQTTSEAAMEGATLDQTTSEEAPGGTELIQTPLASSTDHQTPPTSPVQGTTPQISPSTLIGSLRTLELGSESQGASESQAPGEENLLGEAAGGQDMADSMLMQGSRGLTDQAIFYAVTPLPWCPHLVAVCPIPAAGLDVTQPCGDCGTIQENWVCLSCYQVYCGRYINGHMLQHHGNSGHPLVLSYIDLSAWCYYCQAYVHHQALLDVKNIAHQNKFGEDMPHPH

Histone deacetylase 2 = Histone deacetylase 2 (Homo sapiens, UniProt Q92769); assay: Inhibition of HDAC2 (unknown origin) using Boc-Lys(Ac)-AMC or Boc-Lys(Tfa)-AMC as substrate preincubated for 5 mins followed by substrate addition and measured after 1 hr by fluorescence assay
SK-N-BE(2) = assay: cells; type: functional, cell-based; details: Homo sapiens, SKNBE2, 48 h
Description: Antiproliferative activity against human SK-N-BE(2) cells assessed as inhibition of cell growth incubated for 48 hrs by CCK-8 assay

Jurkat = assay: Antiproliferative activity against human Jurkat cells assessed as inhibition of cell growth incubated for 48 hrs by CCK-8 assay; type: functional, cell-based
in vitro = details: human, HUVEC cells
Description: Cytotoxicity against HUVEC cells assessed as inhibition of cell growth incubated for 48 hrs by CCK-8 assay

cells = type: functional, cell-based; details: Homo sapiens, KM3, 48 h
Description: Antiproliferative activity against human KM3 cells assessed as inhibition of cell growth incubated for 48 hrs by CCK-8 assay

PC-3 = assay: cells; type: functional, cell-based; details: Homo sapiens, PC-3, 48 h
Description: Antiproliferative activity against human PC-3 cells assessed as inhibition of cell growth incubated for 48 hrs by CCK-8 assay

Histone deacetylase 8 = target: T2, Histone deacetylase 8 (Homo sapiens, UniProt Q9BY41); assay: Inhibition of HDAC8 (unknown origin) using Boc-Lys(Ac)-AMC or Boc-Lys(Tfa)-AMC as substrate preincubated for 5 mins followed by substrate addition and measured after 1 hr by fluorescence assay
T2 sequence (Q9BY41 whole entry): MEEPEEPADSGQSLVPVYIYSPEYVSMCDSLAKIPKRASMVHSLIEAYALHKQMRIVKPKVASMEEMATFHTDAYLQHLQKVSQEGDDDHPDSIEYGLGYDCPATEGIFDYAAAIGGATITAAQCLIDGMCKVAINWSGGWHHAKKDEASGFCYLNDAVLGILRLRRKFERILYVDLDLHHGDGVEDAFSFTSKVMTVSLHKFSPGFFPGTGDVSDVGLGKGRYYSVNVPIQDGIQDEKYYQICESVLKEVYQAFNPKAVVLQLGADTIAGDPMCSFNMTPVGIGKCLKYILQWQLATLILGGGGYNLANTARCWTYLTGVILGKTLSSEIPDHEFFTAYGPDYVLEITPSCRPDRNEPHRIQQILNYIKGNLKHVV

[2] = Metabolic stability in liver microsomes (unknown origin) at 2 mg/ml incubated for 120 mins under shaking condition in presence of NADPH by HPLC method; type: ADME, Microsome; details: 2 h

Chain of Histone deacetylase 1 (Q13547 whole entry): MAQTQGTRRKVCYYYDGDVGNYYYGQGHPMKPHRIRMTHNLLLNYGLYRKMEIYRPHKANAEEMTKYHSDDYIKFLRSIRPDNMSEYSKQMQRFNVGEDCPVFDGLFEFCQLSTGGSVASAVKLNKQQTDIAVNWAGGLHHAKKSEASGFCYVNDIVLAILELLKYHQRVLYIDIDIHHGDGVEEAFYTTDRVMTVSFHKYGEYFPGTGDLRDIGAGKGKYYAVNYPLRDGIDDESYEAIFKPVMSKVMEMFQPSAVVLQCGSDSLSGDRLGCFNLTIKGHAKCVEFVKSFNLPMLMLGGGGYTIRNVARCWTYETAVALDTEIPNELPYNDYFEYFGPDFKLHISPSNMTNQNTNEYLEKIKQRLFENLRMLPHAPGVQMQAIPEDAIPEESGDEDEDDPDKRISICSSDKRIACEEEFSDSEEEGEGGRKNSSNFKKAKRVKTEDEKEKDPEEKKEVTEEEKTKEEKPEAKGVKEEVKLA
Chain of Histone deacetylase 2 (Q92769 whole entry): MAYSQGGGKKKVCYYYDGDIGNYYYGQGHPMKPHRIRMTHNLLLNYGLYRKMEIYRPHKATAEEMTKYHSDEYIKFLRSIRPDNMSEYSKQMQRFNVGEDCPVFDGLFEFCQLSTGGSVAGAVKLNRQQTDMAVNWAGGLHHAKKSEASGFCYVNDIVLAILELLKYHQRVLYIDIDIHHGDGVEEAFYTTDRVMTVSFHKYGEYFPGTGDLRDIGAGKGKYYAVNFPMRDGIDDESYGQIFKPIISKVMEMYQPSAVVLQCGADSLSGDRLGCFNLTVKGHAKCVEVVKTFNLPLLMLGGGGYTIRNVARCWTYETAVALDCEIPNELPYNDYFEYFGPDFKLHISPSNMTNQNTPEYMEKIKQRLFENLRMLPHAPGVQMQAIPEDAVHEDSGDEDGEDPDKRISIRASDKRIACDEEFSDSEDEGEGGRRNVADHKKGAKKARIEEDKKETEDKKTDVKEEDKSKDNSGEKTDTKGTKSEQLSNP

| Compound | IC50 (Histone deacetylase) [nM] | IC50 (Histone deacetylase 1) [nM] | IC50 [1] [nM] | IC50 (Histone deacetylase 2) [nM] | IC50 (SK-N-BE(2)) [nM] | IC50 (Jurkat) [nM] | IC50 at 48 h (in vitro) [nM] | IC50 (cells) [nM] | IC50 (PC-3) [nM] | IC50 (Histone deacetylase 8) [nM] | Stability [2] |
| --- | --- | --- | --- | --- | --- | --- | --- | --- | --- | --- | --- |
| COc1ccc(COc2cccc3ccc(C(=O)NCc4ccc(C(=O)NO)cc4)nc23)cc1 | 41 | 130 | 61 | 72 | 4260 | 4850 | > 50000 | 1460 | 5900 | > 10000 |  |
| Cc1ccc(COc2cccc3ccc(C(=O)NCc4ccc(C(=O)NO)cc4)nc23)cc1 | 46 | 132 | 101 | 43 | 3570 | 4430 | > 50000 | 1670 | 4090 | > 10000 |  |
| O=C(CCCCCNC(=O)c1ccc2cccc(OCc3ccccc3)c2n1)NO | 168 |  |  |  |  |  |  |  |  |  |  |
| O=C(CCCCCCC(=O)Nc1ccccc1)NO [VORINOSTAT] |  |  |  |  |  | 3620 |  |  |  |  |  |
| O=C(NO)c1ccc(CNC(=O)c2ccc3cccc(OCc4ccccc4)c3n2)cc1 | 62 |  |  |  |  |  |  |  |  |  |  |
| O=C(NO)c1ccc(CNC(=O)c2ccc3cccc(OCc4ccc(Br)cc4)c3n2)cc1 | 54 |  |  |  |  |  |  |  |  |  |  |
| O=C(NO)c1ccc(CNC(=O)c2ccc3cccc(OCc4ccc(F)cc4)c3n2)cc1 | 33 | 70 | 38 | 18 | 3770 | 4260 | > 50000 | 2830 | 5660 | > 10000 |  |
| O=C(CCCCCNC(=O)c1ccc2cccc(OCc3ccc(Br)cc3)c2n1)NO | 168 |  |  |  |  |  |  |  |  |  |  |
| CC(C)(C)c1ccc(COc2cccc3ccc(C(=O)NCCCCCC(=O)NO)nc23)cc1 | 187 |  |  |  |  |  |  |  |  |  |  |
| COc1ccc(COc2cccc3ccc(C(=O)NCCCCCC(=O)NO)nc23)cc1 | 127 |  |  |  |  |  |  |  |  |  |  |
| COc1cccc2ccc(C(=O)NCc3ccc(C(=O)NO)cc3)nc12 | 50 | 98 | 166 | 26 | 1210 | 2900 | > 50000 | 500 | 2790 | > 10000 | Stable |
